Test results as given in ChEMBL document CHEMBL1143178, “Synthesis and analysis of stabilizing ligands for FKBP-derived destabilizing domains” (Bioorg Med Chem Lett, 2008).

Columns and labels:
[1] = Binding affinity to human FKBP F36V/L106P mutant-YFP fusion protein expressed in NIH3T3 cells after 24 hrs; assay type: cell-based
[2] = Binding affinity to human FKBP F36V mutant

Compound | EC50 [1] [nM] | Kd [2] [nM]
CCC(CC)NC(=O)N1CCCC[C@H]1C(=O)O[C@H](CCc1ccc(OC)c(OC)c1)c1cccc(OCCN2CCOCC2)c1 | 1200 | 29
CC[C@H](C(=O)N1CCCC[C@H]1C(=O)O[C@H](CCc1ccc(OC)c(OC)c1)c1cccc(OCCN2CCOCC2)c1)c1cc(OC)c(OC)c(OC)c1 | 100 | 2.4
